Laboratory results taken from patent US4971995A, “Alkyl or benzyl phenol ethers, their preparation and their therapeutic uses” (Delande S.A., priority 1988, dated 1990).
Read-outs that look alike come from different tables or passages of the source.

What was measured:
[1] = molecular target: T1, form A of monoamine oxydase (Rattus norvegicus, UniProt P21396); assay: in vitro inhibition of monoamine oxydase form A (homogenized rat brain, (14C) serotonine substrate); assay type: biochemical, rat (male Sprague-Dawley, entire brain); details: rat brain homogenate
T1 construct: monoamine oxydase in rat brain tissue; from tissue; host or cells: homogenized entire brain of male Sprague-Dawley rat
T1 sequence (P21396 1-526): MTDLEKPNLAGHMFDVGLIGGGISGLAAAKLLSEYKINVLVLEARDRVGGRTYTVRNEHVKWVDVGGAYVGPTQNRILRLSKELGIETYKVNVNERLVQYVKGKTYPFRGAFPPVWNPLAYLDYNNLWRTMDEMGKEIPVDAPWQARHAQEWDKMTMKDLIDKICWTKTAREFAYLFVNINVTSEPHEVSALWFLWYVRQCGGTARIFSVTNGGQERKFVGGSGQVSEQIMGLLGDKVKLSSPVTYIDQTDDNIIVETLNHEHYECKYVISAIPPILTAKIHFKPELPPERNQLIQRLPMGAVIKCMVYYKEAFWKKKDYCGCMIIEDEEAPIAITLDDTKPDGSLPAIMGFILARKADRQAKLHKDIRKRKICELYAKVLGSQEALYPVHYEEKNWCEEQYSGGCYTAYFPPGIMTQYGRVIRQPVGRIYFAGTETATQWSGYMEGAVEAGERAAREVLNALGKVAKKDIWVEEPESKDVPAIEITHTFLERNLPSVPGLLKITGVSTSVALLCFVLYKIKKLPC
Protocol: Pharmacol., 1983, 35, 161-165.
(§1) Inhibition constants KIA and KIB on forms A and B of mono-
(§2) amine oxydase (homogenized entire brain of a male rate
(§3) (Sprague-Dawley): 1 g of tissue to 16 ml of phosphate
(§4) The inhibition constants were calculated from the formula: KI =
CI50 /l + [S]/Km taking [S] = 48 μM for (^14 C)
serotonine and Km = 100 μM, or [S] = 12 μM for (^14 C)
phenylethylamine and Km = 6 μM
(§5) as the selective substrates for forms A and B respectively of monoamine oxydase.

[2] = molecular target: T2, form B of monoamine oxydase (Rattus norvegicus, UniProt P19643); assay: in vitro inhibition of monoamine oxydase form B (homogenized rat brain, (14C) phenylethylamine substrate); assay type: biochemical, rat (male Sprague-Dawley, entire brain); details: for Ki: rat brain homogenate, pH 7.4, (14C) phenylethylamine; for KIA /KIB, after 20 min pre-incubation / KIA /KIB, no pre-incubation: selectivity ratio form A / form B
T2 construct: monoamine oxydase in rat brain tissue; from tissue; host or cells: homogenized entire brain of male Sprague-Dawley rat
T2 sequence (P19643 1-520): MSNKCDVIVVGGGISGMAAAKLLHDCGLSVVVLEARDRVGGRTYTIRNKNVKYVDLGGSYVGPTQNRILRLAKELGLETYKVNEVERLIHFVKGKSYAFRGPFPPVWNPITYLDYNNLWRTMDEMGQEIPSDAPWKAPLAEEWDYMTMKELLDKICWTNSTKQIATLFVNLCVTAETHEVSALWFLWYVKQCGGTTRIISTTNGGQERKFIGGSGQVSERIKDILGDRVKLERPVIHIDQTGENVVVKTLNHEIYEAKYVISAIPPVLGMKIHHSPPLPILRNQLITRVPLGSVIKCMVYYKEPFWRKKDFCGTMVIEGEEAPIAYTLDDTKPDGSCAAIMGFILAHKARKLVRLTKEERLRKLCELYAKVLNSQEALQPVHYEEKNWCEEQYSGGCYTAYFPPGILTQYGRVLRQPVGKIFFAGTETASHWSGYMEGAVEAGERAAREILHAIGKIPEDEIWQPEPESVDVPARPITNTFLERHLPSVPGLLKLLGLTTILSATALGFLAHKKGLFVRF
Protocol: as §1, §2, §3, §4, §5

[3] = after 20 min pre-incubation, pH 7.4, read-out: Inhibition constant KIA, after 20 min pre-incubation
[4] = no pre-incubation, pH 7.4, read-out: Inhibition constant KIA, no pre-incubation
[5] = after 20 min pre-incubation, read-out: Inhibition constant KIB, after 20 min pre-incubation
[6] = no pre-incubation, read-out: Inhibition constant KIB, no pre-incubation

SMILES	Ki [1, 3] [nM]	Ki [1, 4] [nM]	Ki [2, 5] [nM]	Ki [2, 6] [nM]	KIA /KIB, after 20 min pre-incubation ([2]; after 20 min pre-incubation)	KIA /KIB, no pre-incubation ([2]; no pre-incubation)
COC(CO)COc1ccc(OCc2cccc(Cl)c2)cc1 (racemic) [compound 200213, [(chloro-3 phenylmethyloxy)-4 phenoxy]-3 methoxy-2 propanol-1 (±)]		> 5170		543		> 9.5
COCCCC(O)c1ccc(OCc2cccc(Cl)c2)cc1 (racemic) [compound 280190, [(chloro-3 phenylmethyloxy)-4 phenyl]-1 methoxy-4 butanol-1 (±)]	5430		79		69	
OCCCCc1ccc(OCc2cccc(Cl)c2)cc1 [compound 200123]		> 1720		232		> 7

The next lines start with the values.

Ki [1, 3] [nM]	Ki [1, 4] [nM]	Ki [2, 5] [nM]	Ki [2, 6] [nM]	KIA /KIB, after 20 min pre-incubation ([2]; after 20 min pre-incubation)	KIA /KIB, no pre-incubation ([2]; no pre-incubation)	SMILES
1650						COC[C@H](O)COc1ccc(OCc2cccc(Cl)c2)cc1 [compound 280040, [(chloro-3 phenylmethyloxy)-4 phenoxy]-1 methoxy-3 propanol-2 S (+)]
> 1720	> 1720	570	403	> 3	> 4	COCC(COc1ccc(OCc2cccc(Cl)c2)cc1)OC (racemic) [compound 200210]
